Measurements reported in ChEMBL document CHEMBL4406910, “Scaffold Morphing Identifies 3-Pyridyl Azetidine Ureas as Inhibitors of Nicotinamide Phosphoribosyltransferase (NAMPT)” (ACS Med Chem Lett, 2019).
≈ marks a conversion by molar mass, not a printed value.

Assay: Solubility of compound in pH 6.8 PBS incubated for 16 to 24 hrs under shaking condition by LC-MS/MS analysis
Type: physicochemical
Conditions: not given

Row | SMILES | solubility thermodynamic [µM]
1 | C[C@H](NC(=O)C1CCOCC1)c1ccc(NC(=O)N2CC(c3ccc(N)nc3)C2)cc1 | 310 (≈ 131 µg/mL)
2 | CCC(=O)N[C@@H](C)c1ccc(NC(=O)N2CC(c3cncc(N)c3)C2)cc1 | 230 (≈ 84.5 µg/mL)
3 | C[C@@H](c1ccc(NC(=O)N2CC(c3ccc(N)nc3)C2)cc1)N1Cc2ccccc2C1=O | 220 (≈ 94.1 µg/mL)
4 | C[C@H](NC(=O)C1CCOCC1)c1ccc(NC(=O)N2CC(c3cncc(N)c3)C2)cc1 | 440 (≈ 186 µg/mL)
5 | C[C@@H](c1ccc(NC(=O)N2CC(c3cncc(N)c3)C2)cc1)N1Cc2ccccc2C1=O | 35 (≈ 15 µg/mL)
6 | C[C@H](NC(=O)[C@@H]1CCCN1C)c1ccc(NC(=O)N2CC(c3cncc(N)c3)C2)cc1 | 820 (≈ 346 µg/mL)
7 | C[C@H](NC(=O)[C@@H]1CCCN1C)c1ccc(NC(=O)N2CC(c3ccc(N)nc3)C2)cc1 | 760 (≈ 321 µg/mL)
8 | CCC(=O)N[C@@H](C)c1ccc(NC(=O)N2CC(c3ccc(N)nc3)C2)cc1 | 760 (≈ 279 µg/mL)

Second part, the compound after the results:

Row | solubility thermodynamic [µM] | SMILES
9 | 32 (≈ 13.9 µg/mL) | C[C@H](NC(=O)c1cccc(F)c1)c1ccc(NC(=O)N2CC(c3ccc(N)nc3)C2)cc1
10 | 11 (≈ 4.6 µg/mL) | C[C@H](NC(=O)c1cccc(F)c1)c1ccc(NC(=O)N2CC(c3cccnc3)C2)cc1
11 | > 1000 | C[C@H](NC(=O)[C@@H]1CCCN1C)c1ccc(NC(=O)N2CC(c3cccnc3)C2)cc1
12 | 930 (≈ 374 µg/mL) | C[C@H](NC(=O)c1ncccn1)c1ccc(NC(=O)N2CC(c3cccnc3)C2)cc1
13 | 17 (≈ 7.37 µg/mL) | C[C@H](NC(=O)c1cccc(F)c1)c1ccc(NC(=O)N2CC(c3cncc(N)c3)C2)cc1
14 | 700 (≈ 247 µg/mL) | CCC(=O)N[C@@H](C)c1ccc(NC(=O)N2CC(c3cccnc3)C2)cc1
15 | 380 (≈ 155 µg/mL) | C[C@H](NC(=O)C1CCOCC1)c1ccc(NC(=O)N2CC(c3cccnc3)C2)cc1
16 | 300 (≈ 125 µg/mL) | C[C@H](NC(=O)c1ncccn1)c1ccc(NC(=O)N2CC(c3cncc(N)c3)C2)cc1
17 | 130 (≈ 53.6 µg/mL) | C[C@@H](c1ccc(NC(=O)N2CC(c3cccnc3)C2)cc1)N1Cc2ccccc2C1=O
18 | 300 (≈ 125 µg/mL) | C[C@H](NC(=O)c1ncccn1)c1ccc(NC(=O)N2CC(c3ccc(N)nc3)C2)cc1

Assay: Cmax in athymic nude mouse at 10 mg/kg, po measured for 0.5 to 24 hrs by LC-MS/MS analysis
Type: ADME, organism-based
Parameters: dose 10 mg/kg, route oral
Conditions: in vivo

Row | SMILES | Cmax [µM]
19 | CCOc1nc2ccccc2n1Cc1ccc(NC(=O)N2CC(c3cccnc3)C2)cc1 | 29.1

Assay: AUC (0 to 7 hrs) in athymic nude mouse at 10 mg/kg, po measured for 0.5 to 24 hrs by LC-MS/MS analysis
Type: ADME, organism-based
Parameters: time < 7 hr, dose 10 mg/kg, route oral
Conditions: in vivo

Row | SMILES | AUC(0-t) at 7 h [µM·h]
20 | CCOc1nc2ccccc2n1Cc1ccc(NC(=O)N2CC(c3cccnc3)C2)cc1 | 67.4
